The values that follow come from PubChem BioAssay AID651650 (Sanford-Burnham Center for Chemical Genomics, 2012).

Molecules are shown by their SMILES. pIC50: −log10 of the molar value. Calls of active or inactive are those of the source.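 The calls were made as follows: active = mean IC50 below 20 µM in each of the two panels, so potent in both; inactive = the rest.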

This assay has as its target Neuropilin-1 (Homo sapiens) (UniProt O14786). Kind of assay: blockers of CendR peptide binding to NRP-1 – biochemical, FP and AlphaScreen panel, dose response (AID 651650). The settings on record: NRP-1 b1b2 / RPARPAR peptide binding, FP or AlphaScreen. On the technique in general: Bead proximity is the source of the signal in Alpha formats.
The mark [1] stands for this setting: AlphaScreen, run 1, individual panel run IC50.
The mark [2] stands for this setting: FP, run 1, individual panel run IC50.
Setting [3] is: FP, run 2, individual panel run IC50.

Neuropilin-1 (Homo sapiens), sequence (O14786 whole entry, looked up): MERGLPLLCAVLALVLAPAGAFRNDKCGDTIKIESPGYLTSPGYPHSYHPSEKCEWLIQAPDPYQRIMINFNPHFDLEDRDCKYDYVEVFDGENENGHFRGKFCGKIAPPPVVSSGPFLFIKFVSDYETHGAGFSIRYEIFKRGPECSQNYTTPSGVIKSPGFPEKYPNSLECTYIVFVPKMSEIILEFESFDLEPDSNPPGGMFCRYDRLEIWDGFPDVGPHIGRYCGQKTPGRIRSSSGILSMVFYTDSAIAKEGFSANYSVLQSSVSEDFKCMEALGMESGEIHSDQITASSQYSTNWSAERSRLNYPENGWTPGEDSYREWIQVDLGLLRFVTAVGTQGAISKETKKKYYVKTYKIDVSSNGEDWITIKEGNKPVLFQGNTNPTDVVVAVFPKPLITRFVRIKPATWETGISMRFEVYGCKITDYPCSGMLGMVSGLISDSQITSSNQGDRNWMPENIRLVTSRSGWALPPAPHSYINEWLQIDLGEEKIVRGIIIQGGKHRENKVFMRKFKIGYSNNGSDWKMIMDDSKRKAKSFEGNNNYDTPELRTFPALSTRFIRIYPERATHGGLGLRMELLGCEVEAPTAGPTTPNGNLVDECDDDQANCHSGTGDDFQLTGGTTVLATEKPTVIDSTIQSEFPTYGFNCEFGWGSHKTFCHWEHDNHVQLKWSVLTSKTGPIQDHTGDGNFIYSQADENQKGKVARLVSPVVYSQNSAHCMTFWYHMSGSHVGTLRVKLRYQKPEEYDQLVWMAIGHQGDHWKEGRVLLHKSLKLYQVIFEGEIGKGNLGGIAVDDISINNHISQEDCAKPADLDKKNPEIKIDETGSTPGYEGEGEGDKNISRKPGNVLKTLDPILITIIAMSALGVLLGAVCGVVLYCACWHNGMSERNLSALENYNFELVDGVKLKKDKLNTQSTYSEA

As to `O=C(NCCCN1CCOCC1)c1ccc2c(=O)n(-c3ccc(F)c(Cl)c3)c(=S)[nH]c2c1`, the IC50 (usually the concentration needed to halve the response being measured) is > 100 µM (inactive) (AlphaScreen, mean of runs) and > 95 µM (inactive) (FP, mean of runs). In addition, the pIC50 (as a rule, the IC50 on a negative log10 scale, so that one unit is a factor of ten) by setting is: under setting [1], less than 4.00; under setting [2], less than 4.02; under setting [3], less than 4.02.

For the compound `COc1ccc(C(CNc2ccc(S(=O)(=O)N3CCCC3)cc2[N+](=O)[O-])N2CCCC2)cc1` (stereo not given), the negative logarithm of the IC50 (pIC50) is 4.91 (AlphaScreen, mean of runs); 4.91 under setting [1]; less than 4.02 under setting [2]; less than 4.02 under setting [3]. In addition, where the note is “FP, mean of runs”, the IC50 was > 95 µM (inactive).

For `Cc1cccc(NS(=O)(=O)c2cccs2)c1`, the IC50 (AlphaScreen, mean of runs) is > 100 µM (inactive) and the IC50 (FP, mean of runs) was > 95 µM (inactive). Further, the pIC50 was less than 4.00 under setting [1], less than 4.02 under setting [2] and less than 4.02 under setting [3].

For `CC(C)C[C@@H](COc1ccccc1)N1CCN(CCc2ccccc2)CCC1=O`, the IC50 is, setting by setting: (AlphaScreen, mean of runs) > 100 µM (inactive); (FP, mean of runs) > 95 µM (inactive). Moreover, the pIC50 runs as follows: under setting [1], less than 4.00; under setting [2], less than 4.02; under setting [3], less than 4.02.

For `COc1ccccc1N1CCN(C(=O)C2c3ccccc3Oc3ccccc32)CC1`, the IC50 by setting is: (AlphaScreen, mean of runs) > 100 µM (inactive); (FP, mean of runs) > 95 µM (inactive). For the same compound, the negative-log IC50 (pIC50) was less than 4.00 under setting [1], less than 4.02 under setting [2] and less than 4.02 under setting [3].

Regarding `COc1ccc(OCC(=O)O/N=C(\N)Cc2ccc(Cl)cc2Cl)cc1`, the IC50 entry (AlphaScreen, mean of runs) was “inactive”. Also, the pIC50 runs as follows: under setting [1], 4.26; under setting [2], less than 4.02; under setting [3], less than 4.02. In addition, the IC50 (FP, mean of runs) was > 95 µM (inactive).

Turning to `CNC(=O)Nc1ccccc1C(=O)NCc1ccccc1`, the IC50 is, setting by setting: (AlphaScreen, mean of runs) > 100 µM (inactive); (FP, mean of runs) > 95 µM (inactive). In addition, the pIC50 was less than 4.00 under setting [1], less than 4.02 under setting [2] and less than 4.02 under setting [3].

As for `COc1ccc(-c2noc(CN(C(=O)c3ccc4c(c3)OCO4)C(C)C)n2)cc1`, the IC50 (AlphaScreen, mean of runs) is > 100 µM (inactive) and the IC50 (FP, mean of runs) was > 95 µM (inactive). Besides, the pIC50 reads like this: under setting [1], less than 4.00; under setting [2], less than 4.02; under setting [3], less than 4.02.

Consider `Cc1ccc(S(=O)(=O)N2[C@@H](c3ccc(Cl)cc3)C(C(=O)OC(C)(C)C)=CC[C@H]2c2ccc(Cl)c(Cl)c2)cc1`, for which the IC50 entry (AlphaScreen, mean of runs) is “inactive”. The pIC50 was 4.39 under setting [1], less than 4.02 under setting [2] and less than 4.02 under setting [3]. For the same compound, the IC50 (FP, mean of runs) was > 95 µM (inactive).

In the case of `COc1ccc(CCNC(=O)c2ccc(Cl)c(S(=O)(=O)N(C)c3ccccc3)c2)cc1`, the IC50 (AlphaScreen, mean of runs) is > 100 µM (inactive) and the IC50 (FP, mean of runs) is > 95 µM (inactive). In addition, the pIC50 by setting is: under setting [1], less than 4.00; under setting [2], less than 4.02; under setting [3], less than 4.02.

`NC(=O)C1=C[C@H](c2ccc(Br)cc2)C[C@H](OCc2ccc(CO)cc2)O1`: the IC50 is > 100 µM (inactive) (AlphaScreen, mean of runs) and > 95 µM (inactive) (FP, mean of runs). In addition, the negative-log IC50 (pIC50) was less than 4.00 under setting [1], less than 4.02 under setting [2] and less than 4.02 under setting [3].

For the compound `COc1ccc(N=C2C(=Nc3ccc(OC)cc3)N(c3ccc(N(C)C)cc3)C(=S)N2c2ccc(OC)cc2)cc1`, the IC50 was > 100 µM (inactive) (AlphaScreen, mean of runs) and > 95 µM (inactive) (FP, mean of runs). Besides, the negative-log IC50 (pIC50) by setting is: under setting [1], less than 4.00; under setting [2], less than 4.02; under setting [3], less than 4.02.

On to `CCC1CCCCN1C(=S)Nc1ccc(OC(F)F)cc1` (stereo not given), for which, under “AlphaScreen, mean of runs”, the IC50 result was “inactive”. Also, the pIC50 under setting [1] is 4.48, the pIC50 under setting [2] was less than 4.02 and the pIC50 under setting [3] was less than 4.02. The IC50 (FP, mean of runs) was > 95 µM (inactive).

In the case of `O=C(CCn1c(=O)c2cccn2c2cccnc21)NCc1cccc(Cl)c1`, the IC50 was > 100 µM (inactive) (AlphaScreen, mean of runs) and > 95 µM (inactive) (FP, mean of runs). Moreover, the pIC50 under setting [1] is less than 4.00, the negative-log IC50 (pIC50) under setting [2] is less than 4.02 and the pIC50 under setting [3] is less than 4.02.

As for `Cc1cc(S(=O)(=O)NC2CCCCC2)ccc1OCC(=O)N1CCOCC1`, the negative-log IC50 (pIC50) (AlphaScreen, mean of runs) is 4.82; the pIC50 under setting [1] was 4.82; the negative-log IC50 (pIC50) under setting [2] is less than 4.02; the pIC50 under setting [3] was less than 4.02. Besides, where the note is “FP, mean of runs”, the IC50 is > 95 µM (inactive).

With `CCOC(=O)N1CCN(C(=O)c2cc(COc3ccc(OC)cc3Cl)on2)CC1`, the IC50 runs as follows: (AlphaScreen, mean of runs) > 100 µM (inactive); (FP, mean of runs) > 95 µM (inactive). In addition, the negative-log IC50 (pIC50) is less than 4.00 under setting [1], less than 4.02 under setting [2] and less than 4.02 under setting [3].

`CC1CCN(C(=O)CSc2nncn2C)CC1`: the IC50 was > 100 µM (inactive) (AlphaScreen, mean of runs) and > 95 µM (inactive) (FP, mean of runs). The negative logarithm of the IC50 (pIC50) under setting [1] was less than 4.00, the pIC50 under setting [2] was less than 4.02 and the pIC50 under setting [3] was less than 4.02.

For the compound `O=c1c2cn[nH]c2nc(SCc2ccccc2F)n1-c1ccc(Br)cc1`, the IC50 by setting is: (AlphaScreen, mean of runs) > 100 µM (inactive); (FP, mean of runs) > 95 µM (inactive). Moreover, the pIC50 reads like this: under setting [1], less than 4.00; under setting [2], less than 4.02; under setting [3], less than 4.02.

As to `CCOc1ccc(/C=C2/Sc3ccc(C(=O)NCC4CCCO4)cc3N(C)C2=O)cc1OC` (stereo not given), the IC50 is > 100 µM (inactive) (AlphaScreen, mean of runs) and > 95 µM (inactive) (FP, mean of runs). Moreover, the pIC50 is less than 4.00 under setting [1], less than 4.02 under setting [2] and less than 4.02 under setting [3].

In the case of `COc1cc(C(=O)OCCCOC(=O)c2cc(OC)c(OC)c(OC)c2)cc(OC)c1OC`, the IC50 is > 100 µM (inactive) (AlphaScreen, mean of runs) and > 95 µM (inactive) (FP, mean of runs). Further, the negative logarithm of the IC50 (pIC50) reads like this: under setting [1], less than 4.00; under setting [2], less than 4.02; under setting [3], less than 4.02.

With `CSc1cccc(CN2CCN(Cc3ccccc3)C(CCO)C2)c1` (stereo not given), the IC50 by setting is: (AlphaScreen, mean of runs) > 100 µM (inactive); (FP, mean of runs) > 95 µM (inactive). Also, the pIC50 was less than 4.00 under setting [1], less than 4.02 under setting [2] and less than 4.02 under setting [3].

Consider `COCCNC(=S)N(CCc1c(C)[nH]c2ccc(F)cc12)Cc1cccs1`, for which the IC50 is > 100 µM (inactive) (AlphaScreen, mean of runs) and > 95 µM (inactive) (FP, mean of runs). The pIC50 was less than 4.00 under setting [1], less than 4.02 under setting [2] and less than 4.02 under setting [3].

In the case of `CC(=O)Nc1cc(F)c2c(c1F)Cc1cc(F)ccc1-2`, the IC50 entry (AlphaScreen, mean of runs) was “inactive”. In addition, the pIC50 was 4.05 under setting [1], less than 4.02 under setting [2] and less than 4.02 under setting [3]. Besides, the IC50 (FP, mean of runs) was > 95 µM (inactive).

In the case of `CCOC(=O)Cc1ccc(NS(=O)(=O)c2ccc(SC)cc2)cc1`, the IC50 is > 100 µM (inactive) (AlphaScreen, mean of runs) and > 95 µM (inactive) (FP, mean of runs). The compound also showed a pIC50 under setting [1] of less than 4.00, a negative-log IC50 (pIC50) under setting [2] of less than 4.02 and a negative logarithm of the IC50 (pIC50) under setting [3] of less than 4.02.

Consider `O=C(COc1ccc(Br)cc1CO)Nc1ccc(F)cc1`, for which the IC50 by setting is: (AlphaScreen, mean of runs) > 100 µM (inactive); (FP, mean of runs) > 95 µM (inactive). Also, the negative-log IC50 (pIC50) reads like this: under setting [1], less than 4.00; under setting [2], less than 4.02; under setting [3], less than 4.02.

Take `Cc1cc2cc(CNC(=O)c3ccc(S(=O)(=O)N4CCOCC4)cc3)ccc2n1C`: the IC50 runs as follows: (AlphaScreen, mean of runs) > 100 µM (inactive); (FP, mean of runs) > 95 µM (inactive). Besides, the pIC50 runs as follows: under setting [1], less than 4.00; under setting [2], less than 4.02; under setting [3], less than 4.02.

Turning to `CCOC(=O)C[C@H]1c2cc(C(F)(F)F)ccc2S(=O)(=O)N1Cc1ccccc1`, the IC50 reads like this: (AlphaScreen, mean of runs) > 100 µM (inactive); (FP, mean of runs) > 95 µM (inactive). For the same compound, the negative-log IC50 (pIC50) reads like this: under setting [1], less than 4.00; under setting [2], less than 4.02; under setting [3], less than 4.02.

Turning to `COc1ccc(C(C(=O)NC(C)(C)C)N(C(=O)CCC(=O)Nc2cc(C)on2)c2c(C)cccc2C)cc1` (stereo not given), the IC50 was > 100 µM (inactive) (AlphaScreen, mean of runs) and > 95 µM (inactive) (FP, mean of runs). Moreover, the pIC50 runs as follows: under setting [1], less than 4.00; under setting [2], less than 4.02; under setting [3], less than 4.02.

Turning to `Cc1ccccc1NC(=S)NC(=O)COc1ccccc1C`, the pIC50 is, setting by setting: (AlphaScreen, mean of runs) 5.18; under setting [1], 5.18; under setting [2], 4.49; under setting [3], 4.46. Further, under “FP, mean of runs”, the IC50 result was “inactive”.

Take `c1cc(CNc2ccc3c(c2)OCO3)ccn1`: the IC50 was > 100 µM (inactive) (AlphaScreen, mean of runs) and > 95 µM (inactive) (FP, mean of runs). Moreover, the pIC50 by setting is: under setting [1], less than 4.00; under setting [2], less than 4.02; under setting [3], less than 4.02.

Turning to `O=C(O/N=C1/CCSc2ccccc21)c1ccccc1`, the IC50 runs as follows: (AlphaScreen, mean of runs) > 100 µM (inactive); (FP, mean of runs) > 95 µM (inactive). The negative-log IC50 (pIC50) under setting [1] is less than 4.00, the negative logarithm of the IC50 (pIC50) under setting [2] is less than 4.02 and the negative logarithm of the IC50 (pIC50) under setting [3] is less than 4.02.

For the compound `CC(Oc1ccccc1)C(=O)NC1=NCCS1` (stereo not given), the IC50 by setting is: (AlphaScreen, mean of runs) > 100 µM (inactive); (FP, mean of runs) > 95 µM (inactive). Moreover, the negative-log IC50 (pIC50) under setting [1] was less than 4.00, the negative-log IC50 (pIC50) under setting [2] is less than 4.02 and the pIC50 under setting [3] is less than 4.02.

Regarding `Cc1ccc(C(=O)Nc2ccccc2-c2ccccc2)cc1S(=O)(=O)Nc1ccccc1`, the IC50 runs as follows: (AlphaScreen, mean of runs) > 100 µM (inactive); (FP, mean of runs) > 95 µM (inactive). This compound showed a pIC50 under setting [1] of less than 4.00, a pIC50 under setting [2] of less than 4.02 and a pIC50 under setting [3] of less than 4.02.

For `Cc1ccc(/C=N/Nc2nc3ccccc3[nH]2)s1`, the IC50 by setting is: (AlphaScreen, mean of runs) > 100 µM (inactive); (FP, mean of runs) > 95 µM (inactive). The compound also showed a pIC50 under setting [1] of less than 4.00, a negative-log IC50 (pIC50) under setting [2] of less than 4.02 and a negative-log IC50 (pIC50) under setting [3] of less than 4.02.
